Values quoted from earlier work, collected in patent publication US8097743B2, “Process for manufacture of blocked mercaptosilane coupling agents” (Momentive Performance Materials Inc., priority 2002, dated 2012).

Details: cited from earlier work

SMILES	Miscibility with water (classification) (below 18.7° C.)	Solubility in water (classification)
CCN(CC)CC [TEA, triethylamine]	completely miscible	
CCCN(CCC)CCC [TNPA, tri-n-propylamine]		very slightly soluble
